# What was measured:
# Type in all cases: in vivo, mouse
# hair cells = assay: Surface preparation / Texas-Red phalloidin staining of hair cells of the Corti's organ after noise exposure; details: 1 week after noise exposure, 32 kHz site; montelukast post-treatment group compared with noise exposure group
# Protocol: The cut cochlea was perfused with 4% PFA in 0.1 M PB and maintained overnight at 4° C. The cochlea was washed with PBS three times for 10 minutes and then decalcified with a 5% EDTA solution for 3 days. After decalcification, an otic capsule was removed and a lateral wall, a Reissner's membrane, and a tectorial membrane were removed under an optical microscope. The Corti's organ (OC) was dyed with Texas Red VR-X phalloidin (T7471; 200 U/mL methanol diluted 1:100 in PBS; Invitrogen, Eugene, Oreg.) for 1 hour. Thereafter, the entire samples were rinsed with PBS and cut and placed on a glass slide by performing a surface treatment method (microdissected into individual turns) and using a mounting solution containing 4′6-diamidino-2-phenilindol (H-1200; 1.5 μg/ml; DAPI; Vector Laboratories). The slide was incubated for at least 15 minutes. The hair cells of the OC were observed by a confocal microscope (LSM510, Carl Zeiss, Jena, Germany).
# CysLT1 receptor gene = assay: PCR of Cysltr1 gene expression in the cochlea after noise exposure; details: 3 day after noise exposure, montelukast post-treatment vs noise exposure group
# Protocol: At 1 day, 3 day, and 7 day, the animal was euthanized with urethane intraperitoneal injection (1 g/kg) and the bilateral temporal bone was immediately removed. Two isolated cochleae were dissolved in a TRIzol solution, the lipid was removed by adding chloroform, and then RNA gene was extracted with isopropanol alcohol. The extracted RNA gene was quantified, mixed with two types of forward and reverse primers and polymerase, and amplified at an average of 35 cycles for each primer through a PCR machine, and then changes in expression level for each gene were compared and analyzed by measuring the fluorescent degree.
# [1] = tested on: matrix metalloproteinase-3 (Mmp3); assay: Gene and protein expression of Mmp3 in inner ear tissue after noise exposure (FIG. 10)
# stereocilia of OHC = assay: Scanning electron microscopy (SEM) of cochlear hair cells after noise exposure; details: basal turn areas corresponding to 32 kHz, montelukast post-treatment compared with only-noise exposed group
# Description: The SEM was used for evaluating the form of the hair cells of the cochlea. The mouse was euthanized after intraperitoneal injection of urethane, and temporal bones were dissected at both sides from the skull in order to obtain the cochlea to be carefully cut. The fenestra rotunda of the obtained cochlea was perforated by using a sharp needle. An outer lymph space was perfused with 2% glutaraldehyde in PBS by positioning a Pasteur pipette having a modified butterfly catheter for the fenestra rotunda. Each sample was left in a glutaraldehyde solution overnight. The samples were perfused with 1% osmium tetroxide and positioned at a tissue rotator for 15 minutes. The samples were rinsed with PBS three times. Under an optical microscope, the bone part of the cochlea was carefully removed and a lateral wall was cut and removed to expose the Corti's organ. The tissue was continuously dehydrated with 50, 70, 90, 95, and 100% acetones. Each specimen was treated with hexamethyldisilazane (HMDS) and dried in air, and positioned in a stove for coating of platinum. The tissue was photographed by JSM-6380 (Jeol, Tokyo, Japan). The damage to the hair cells was analyzed in basal turn areas corresponding to 32 kHz.
compound,measurement,setting,value
CC(C)(O)c1ccccc1CCC(SCC1(CC(=O)[O-])CC1)c1cccc(/C=C/c2ccc3ccc(Cl)cc3n2)c1.[Na+] (centres unmarked) [montelukast],hair cell marker (phalloidin),hair cells,significantly increased
same,CysLT1 receptor gene (Cysltr1) expression,CysLT1 receptor gene,significantly decreased
same,Mmp3 gene expression level,[1]; montelukast post-treatment after noise exposure (FIG. 10A),reduction
same,Mmp3 protein expression level,"[1]; western blot, montelukast post-treatment after noise exposure (FIG. 10B)",reduction
same,damage to the stereocilia of OHC,stereocilia of OHC,significantly reduced

# Reference: patent US10441616B2, “Pharmaceutical composition for treating or preventing sensorineural hearing loss, containing cysteinyl leukotriene receptor antagonist and ginkgo leaf extract” (AJOU UNIVERSITY INDUSTRY-ACADEMIC COOPERATION FOUNDATION, priority 2014, dated 2019)
